Tests used:
[1] = system: spontaneously hypertensive rats; assay: mean arterial blood pressure in spontaneously hypertensive rats; type: in vivo
Experimental: Further, spontaneously hypertensive rats were treated with a suspension or solution of 1-benzyl-1,2,4-triazole-5-thiol at a dose of 100 mg/kg orally, and mean arterial blood pressure was monitored for 260 minutes using indwelling cannulae positioned in the tail arteries. When compared to vehicle-treated controls, the compound-treated animals' blood pressure was approximately 5% below that of controls 20 minutes following treatment. The compound-treated animals' blood pressure continued to fall until it reached its nadir of approximately 20% less than controls at 240 minutes after compound treatment. Similarly, 1-(3ʹ-fluorobenzyl)-1,2,4-triazole-5-thiol produced approximate 20% blood pressure reductions one hour after a 50 mg/kg intraperitoneal dose. The blood pressure of the treated animals remained approximately 20% less than controls when blood pressure monitoring was terminated.

DBH = target: T1, DBH (Homo sapiens, UniProt P09172); conditions: reported by Runti et al., Il Farmaco Ed. Sci. 36, 260 (1980); cited from earlier work
T1 sequence (P09172 1-617): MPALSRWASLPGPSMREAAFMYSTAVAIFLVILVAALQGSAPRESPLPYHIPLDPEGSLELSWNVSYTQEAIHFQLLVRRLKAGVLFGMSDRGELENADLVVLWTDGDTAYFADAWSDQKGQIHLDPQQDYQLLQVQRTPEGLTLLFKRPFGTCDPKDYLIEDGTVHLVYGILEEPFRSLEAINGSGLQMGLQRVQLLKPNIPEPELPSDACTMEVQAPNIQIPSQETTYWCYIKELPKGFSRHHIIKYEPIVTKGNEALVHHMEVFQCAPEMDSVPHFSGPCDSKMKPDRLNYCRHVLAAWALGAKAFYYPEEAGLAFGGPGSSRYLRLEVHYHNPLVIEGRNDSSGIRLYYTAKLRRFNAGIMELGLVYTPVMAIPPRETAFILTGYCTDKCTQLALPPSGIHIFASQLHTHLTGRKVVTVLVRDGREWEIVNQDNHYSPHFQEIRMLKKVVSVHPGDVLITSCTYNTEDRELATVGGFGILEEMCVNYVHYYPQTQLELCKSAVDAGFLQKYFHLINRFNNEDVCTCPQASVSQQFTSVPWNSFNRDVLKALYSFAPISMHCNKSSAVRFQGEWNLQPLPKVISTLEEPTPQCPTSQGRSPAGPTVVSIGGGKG

Fc1cccc(Cn2ncnc2S)c1 [1-(3ʹ-Fluorobenzyl)-1,2,4-triazole-5-thiol]
blood pressure reductions ([1]; 50 mg/kg intraperitoneal dose, one hour after dose): approximately 20% | blood pressure less than controls ([1]; 50 mg/kg intraperitoneal dose, when blood pressure monitoring was terminated): approximately 20%

Sc1ncnn1Cc1ccccc1 [1-benzyl-1,2,4-triazole-5-thiol, 1-Benzyl-1,2,4-triazole-5-thiol]
blood pressure below that of controls ([1]; 100 mg/kg orally, 20 minutes following treatment, vs vehicle-treated controls): approximately 5% | blood pressure nadir, less than controls ([1]; 100 mg/kg orally, 240 minutes after compound treatment, vs vehicle-treated controls): approximately 20%

phenylpicolinic acid
inhibitory activity relative to fusaric acid (DBH): twice the inhibitory activity of fusaric acid
